In brackets after ≈: the same amount, converted by molar mass. Where two headings read alike, the source gives them in different places.

By IC50 is commonly meant the concentration at which inhibition is half-maximal.

Data set [1] concerns the target human Factor XIa (Homo sapiens, UniProt P03951). In words: Factor XIa assay. The data set is classed as biochemical. As to conditions: human Factor XIa 0.04 nM, GPR-AFC substrate, 25° C., pH 7.4; read-out: FXIa IC50. Here is the method:
(§1) The effectiveness of a compound of the present invention as an inhibitor of Coagulation Factor XIa can be determined using a relevant purified serine protease, and an appropriate synthetic substrate. The rate of hydrolysis of the chromogenic or fluorogenic substrate by the relevant serine protease was measured both in the absence and presence of compounds of the present invention. Assays were conducted at room temperature or at 37° C. […] A decrease in the rate of fluorescence change in the presence of inhibitor is indicative of enzyme inhibition. Such methods are known to one skilled in the art. The results of this assay are expressed as the half-maximal inhibitory concentrations (IC50), or the inhibitory constant, Ki.
Compounds were pre-incubated for 30 minutes at 25° C. with human (0.04 nM) Factor XIa in 50 mM HEPES buffer with 150 mM sodium chloride, 5 mM calcium chloride, 0.1% PEG 8000, pH 7.4. Factor XIa enzymatic activity was determined by addition of the substrate glycine-proline-arginine-7-amido-4-trifluoromethylcoumarin (GPR-AFC) and measurement of the fluorescence at 400/505 nm after a 60 minute incubation at 25° C. The % inhibition for each data point was calculated from the data and analyzed using the log (inhibitor) vs. response four parameters equation to determine the half-maximal inhibitory concentrations (IC50). The IC50 were converted to equilibrium inhibitory constants (Ki) using the Cheng-Prusoff equation.

The target in data set [2] is T1, Human plasma kallikrein (Homo sapiens, UniProt P03952).
T1 construct: yields a heavy chain (371 amino acids) and a light chain (248 amino acids); purchased Enzyme Research Laboratories
Kind of data set: Kallikrein assay (plasma kallikrein). The data set is classed as biochemical. As to conditions: purified Human plasma kallikrein 0.5 nM, Acetyl-K-P-R-AFC substrate, pH 7.4; read-out: pKal IC50. Here is the method:
as §1, with “Kallikrein” for “Coagulation Factor XIa”, “constant.” for “constant,”
Kallikrein determinations were made in 50 mM HEPES buffer at pH 7.4 containing 150 mM NaCl, 5 mM CaCl2, and 0.1% PEG 8000 (polyethylene glycol; Fisher Scientific). Determinations were made using purified Human plasma kallikrein at a final concentration of 0.5 nM (Enzyme Research Laboratories) and the synthetic substrate. Acetyl-K-P-R-AFC (Sigma # C6608) at a concentration of […].
Activity assays were performed by diluting a stock solution of substrate at least tenfold to a final concentration≤ 0.2 Km into a solution containing enzyme or enzyme equilibrated with inhibitor. Times required to achieve equilibration between enzyme and inhibitor were determined in control experiments. The reactions were performed under linear progress curve conditions and fluorescence increase measured at 405 Ex/510 Em nm. Values were converted to percent inhibition of the control reaction (after subtracting 100% Inhibition value). IC50 was determined by inflection point from a four parameter logistic curve fit. Ki was calculated using the Cheng Prusoff equation. Ki=IC50/(1+([S]/Km)).

A short description of data set [3]: High-throughput (HT) solubility determination. Type of data set: physicochemical. As to conditions: kinetic from dmso stock. Here is the method: The chromatographic system consists of an Agilent 1290 UPLC/DAD system and ChemStation software, both from Agilent Technologies, USA. The separations are carried out on a Supelco Ascentis Express C18, 30 mm×3.0 mm I.D., 2.7 μm HPLC column. The mobile phase consists of Potassium phosphate buffered at pH 7 (mobile phase A) and acetonitrile (mobile phase B). The column oven temperature is set to 30° C. and the UPLC analysis consists of a gradient. The injection volume is 2 μL and the spectrophotometric detection is set to 215 and 238 nm.
A 10 mM stock solution of the compound in DMSO is supplied for analysis. 2.5 μL of stock solution (10 mM) was diluted into 247.5 μL of organic co-solvents (10% MeCN/80% MeOH/10% DMSO, v/v/v) to create a standard solution of 100 μM. To create the solubility solutions, 4.1 μL of 10 mM DMSO stock solution was diluted into […] of phosphate buffered saline (PBS) (pH 7) solution. A second 4.1 μL aliquot of 10 mM DMSO stock solution was added to 196 μL of PBS (pH 2) solution. A third 4.1 uL aliquot of 10 mM DMSO stock solution was added to 196 uL of FaSSIF (pH 6.5) solution. […] The equilibrated solubility solutions were filtered by centrifugation using a filter (0.45 μm, polypropylene). 50 μL each of the 100 μM standard solution and the filtered equilibrated solubility solutions were placed into a 384 well plate, and the plate was subsequently heat sealed.
Each standard and solubility solution was analyzed by UPLC/DAD. The solubility value was calculated by the following equation: Solubility=(Peak area of sample/Peak area of standard) (Standard concentration)

Setting [4] is: FaSSIF pH 6.5, shaken 24 hours at 25° C., read-out: pH 6.5 (FaSSIF) solubility.
The mark [5] stands for this setting: phosphate buffered saline (PBS) pH 2, aqueous buffer, PBS pH 2, shaken 24 hours at 25° C., read-out: pH 2 solubility.

T1 sequence (P03952 391-638 limits assumed): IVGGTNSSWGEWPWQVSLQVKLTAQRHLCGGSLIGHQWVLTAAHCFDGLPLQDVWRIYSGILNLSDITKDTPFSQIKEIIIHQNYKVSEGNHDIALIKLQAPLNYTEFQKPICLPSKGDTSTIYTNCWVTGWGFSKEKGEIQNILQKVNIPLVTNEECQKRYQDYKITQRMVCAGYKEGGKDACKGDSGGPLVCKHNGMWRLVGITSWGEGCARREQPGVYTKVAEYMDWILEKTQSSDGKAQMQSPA
T1 sequence (P03952 20-390 partner limits assumed): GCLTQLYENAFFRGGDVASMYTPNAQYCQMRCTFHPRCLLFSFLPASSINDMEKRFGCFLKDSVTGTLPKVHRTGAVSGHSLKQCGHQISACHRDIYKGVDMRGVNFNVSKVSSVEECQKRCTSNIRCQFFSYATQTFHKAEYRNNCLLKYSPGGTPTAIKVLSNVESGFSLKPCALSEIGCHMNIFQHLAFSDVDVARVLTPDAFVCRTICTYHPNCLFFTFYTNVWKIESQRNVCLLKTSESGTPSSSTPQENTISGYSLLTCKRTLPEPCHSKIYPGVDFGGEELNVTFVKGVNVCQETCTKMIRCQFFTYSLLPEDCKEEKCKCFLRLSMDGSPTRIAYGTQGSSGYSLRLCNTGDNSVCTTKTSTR
human Factor XIa, sequence (P03951 388-625 limits assumed): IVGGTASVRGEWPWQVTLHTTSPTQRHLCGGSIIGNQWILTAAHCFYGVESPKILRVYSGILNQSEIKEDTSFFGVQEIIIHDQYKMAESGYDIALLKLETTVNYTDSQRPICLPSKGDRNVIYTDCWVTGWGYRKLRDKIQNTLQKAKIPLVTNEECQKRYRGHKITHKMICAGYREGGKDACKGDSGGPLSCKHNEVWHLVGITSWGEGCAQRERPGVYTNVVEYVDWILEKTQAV
human Factor XIa, sequence (P03951 19-387 partner limits assumed): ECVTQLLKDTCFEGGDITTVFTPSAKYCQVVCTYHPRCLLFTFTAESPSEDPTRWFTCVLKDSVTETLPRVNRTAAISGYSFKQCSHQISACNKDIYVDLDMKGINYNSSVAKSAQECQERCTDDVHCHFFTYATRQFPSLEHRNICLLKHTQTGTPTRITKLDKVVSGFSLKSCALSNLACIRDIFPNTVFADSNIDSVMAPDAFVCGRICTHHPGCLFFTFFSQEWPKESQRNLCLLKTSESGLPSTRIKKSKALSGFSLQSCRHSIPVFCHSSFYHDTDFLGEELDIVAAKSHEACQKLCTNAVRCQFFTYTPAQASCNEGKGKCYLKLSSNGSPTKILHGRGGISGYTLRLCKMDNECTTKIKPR

Take `COC(=O)Nc1ccc2c(c1)NC(=O)C(C)(C)CCC[C@H](c1ccc(-c3cc(F)ccc3OC(F)F)c[n+]1[O-])c1nc-2c(C(=O)O)[nH]1.N` (single isomer, unassigned) [Example 7]: the IC50 is 0.16 nM in data set [1] and 4.4 nM in data set [2]. The solubility kinetic at 24 h was found to be 170 µM in data set [3] (setting [4]) and 145 µM in data set [3] (setting [5]).

For the compound `COC(=O)Nc1ccc2c(c1)NC(=O)C(C)(C)CCC[C@H](c1ccc(-c3cc(F)ccc3-n3cc(C(F)(F)F)cn3)c[n+]1[O-])c1nc-2c(C(=O)O)[nH]1` [Example 8, (R,Z)-2-(1^5-carboxy-2^4-((methoxycarbonyl)amino)-5,5-dimethyl-4-oxo-1^1H-3-aza-1(4,2)-imidazola-2(1,2)-benzenacyclononaphane-9-yl)-5-(5-fluoro-2-(4-(trifluoromethyl)-1H -pyrazol-1-yl)phenyl)pyridine 1-oxide], the figures for the IC50 in data set [1] and in data set [2] were 0.39 nM and 544 nM, respectively. The solubility kinetic at 24 h in data set [3] (setting [4]) amounted to 141 µM (≈ 102 µg/mL); in data set [3] (setting [5]) it was 154 µM (≈ 111 µg/mL).

`COC(=O)Nc1ccc2c(c1)NC(=O)C(C)(C)CCC[C@H](c1ccc(-c3cccc(Cl)c3F)c[n+]1[O-])c1nc-2c(C(=O)O)[nH]1` [Example 9, (R,Z)-2-(1^5-carboxy-2^4-((methoxycarbonyl)amino)-5,5-dimethyl-4-oxo-1^1H-3-aza-1(4,2)-imidazola-2(1,2)-benzenacyclononaphane-9-yl)-5-(3-chloro-2-fluorophenyl)pyridine 1-oxide]: the IC50 worked out at 0.25 nM in data set [1] and 1.1 nM in data set [2]. The solubility kinetic at 24 h came out at 138 µM (≈ 85.8 µg/mL) in data set [3] (setting [4]) and 125 µM (≈ 77.8 µg/mL) in data set [3] (setting [5]).

The record behind these values is patent US12497403B2, “Factor XIa inhibitors” (Merck Sharp & Dohme LLC, priority 2021, dated 2025).
